In patent US11612601B1, “Targeting epidermal growth factor to treat vascular calcification” (THE FLORIDA INTERNATIONAL UNIVERSITY BOARD OF TRUSTEES, priority 2022, dated 2023):

Legend:
CKD mice = experiment: Kidney renal fibrosis marker qRT-PCR and H&E histology in CKD mice; assay type: in vivo, mouse
Description: To assess histological changes in kidneys due to renal injury, Hematoxylin and Eosin (H&E) staining was performed. The kidneys resected from the mice were fixed using formalin (10%) for three hours. Tissues were embedded using Tissue-Plus OCT (Fisher Scientific, 23-730-571). The samples were cryosectioned with a thickness of 12 μm and stained using rapid chrome H&E staining kit (Thermo Scientific, 9990001).
To isolate RNA from the resected kidneys, the tissues were homogenized using a grinder (Sigma, Z529672) and lysed in 1 mL TRIzol solution. After 10 min incubation at room temperature, the samples were centrifuged at 12,000×g for 10 min at 4° C. The supernatants were collected and 200 μL of chloroform (Sigma Aldrich, C2432) were added to each sample. The samples were vortexed, incubated at room temperature for 10 min, and centrifuged for 15 min at 12,000×g, 4° C. The aqueous phase was collected from each sample and 500 μL of isopropanol was added; the samples were vortexed, incubated for 15 min at room temperature following by 15 min on ice, and centrifuged at 21,000×g for 15 min. The supernatants were discarded, and pellets were washed twice with 500 μL cold ethanol (75% v/v) and centrifuged at 21,000×g for 5 min. The isolated RNA templates were heated at 65° for 15 min, and the concentrations were measured using a spectrophotometer (NanoDrop Lite, Thermo scientific). Power SYBR Green RNA-to-CT 1-Step Kit with 100 ng isolated template RNA per reaction was used.
The following mouse primer sequences were purchased from Eurofins Scientific; Gapdh Forward: AACGACCCCTTCATTGAC (SEQ ID NO: 9) and Reverse: TCCACGACATACTCAGCAC (SEQ ID NO: 10); Colla1 Forward: […] (SEQ ID NO: 11) and Reverse: […] (SEQ ID NO: 12); Tgfb1 Forward: […] (SEQ ID NO: 13) and Reverse: CAGCAGCCGGTTACCAAG (SEQ ID NO: 14).

Osteoblasts (hFOB 1.19) = experiment: Osteoblast osteogenic gene expression, intracellular TNAP activity and CAV1; assay type: cell-based, human; conditions: 7 days
Description: Osteoblasts (from human fetus, hFOB 1.19, ATCC, CRL-11372) were cultured and grown in DMEM containing 10% v/v bovine calf serum and 1% v/v penicillin-streptomycin. Osteoblasts (passage 4-6) were harvested using 0.25% trypsin-EDTA solution (Caisson Labs, TRL01), seeded with a density of 5,200 cell.cm^−2, and incubated for 24 hours at 37° C. and 5% CO2 with controlled humidity. The cells were treated in three groups of control, OS, and OS supplemented with tyrphostin AG1478 (2.5 μM) for 21 days and media changed every three days. […] Similar to the VSMC experiments, EV-free media were added to the cultures on days 6, 13, and 20, and collected 24 hours later on days 7, 14, and 21. Collected media were centrifuged at 1,000×g for 5 min to remove cell debris. EVs were isolated using the ultracentrifugation at 100,000×g for 1 hour.
Following 7 or 14 days of treatment with control, OS, and OS plus EGFR inhibitor media, VSMCs and osteoblasts were lysed in 1 mL TRIzol solution (Invitrogen, 15596018). Total RNA was isolated according to the manufacturer's protocol. To perform the quantitative real time polymerase chain reaction (qRT-PCR), Power SYBR Green RNA-to-CT 1-Step Kit (Applied Biosystems, 4391178) was used. 50 ng isolated template RNA were added to each reaction for qRT-PCR. The results were normalized relative to Glyceraldehyde 3-phosphate dehydrogenase (GAPDH) expression level as the housekeeping control. The relative gene expression levels were calculated using comparative CT method, considering control groups as the reference.
The following human primer sequences were purchased from Integrated DNA Technologies (IDT); GAPDH Forward: […] (SEQ ID NO: 1) and Reverse: […] (SEQ ID NO: 2); RUNX2 Forward: […] (SEQ ID NO: 3) and Reverse: […] (SEQ ID NO: 4); ALPL Forward: […] (SEQ ID NO: 5) and Reverse: […] (SEQ ID NO: 6); Osteocalcin Forward: TCACACTCCTCGCCCTATT (SEQ ID NO: 7) and Reverse: […] (SEQ ID NO: 8).
To assess the activity of intracellular tissue non-specific alkaline phosphatase (TNAP), a colorimetric assay kit (BioVision, K412) was used. VSMCs (n=3) after 14 days and osteoblasts (n=3) after 7 days, were lysed in 120 μL assay buffer. 80 μL of each sample were mixed with 50 μL of 5 mM pNPP solution and incubated for 60 min at 25° C. The colorimetric change resulting from the reaction was detected using a plate reader to measure absorbance at 405 nm. The results were normalized to the total protein for associated samples measured by a BCA protein assay (BioVision, K813).
VSMCs, osteoblasts, isolated EVs (either from cells or mouse aortas), and matrix vesicles (from osteoblasts) were lysed in RIPA lysis and extraction buffer supplemented with protease inhibitor. After adding Laemmli SDS-sample buffer (1:4 v/v, Boston BioProducts, BP-110R) to each lysate, the samples were denatured at 100° C. for 10 min, loaded into 7.5-12% 1-mm SDS-PAGE gel (15 to 20 μg protein per lane), and run at 170 V. The proteins were then transferred to Trans-Blot turbo nitrocellulose membranes (BIO-RAD, 1704158) at 25 V for 7 min.
To quantify the total protein, the membranes were stained using 2% w/v Ponceau stain (Alfa Aesar, AAJ6074409) for 20 min, followed by one wash with 5% acetic acid and milliQ water for 5 min. After imaging, the intensity of each lane was measured in ImageJ for total protein normalization. Membranes were blocked with 5% w/v bovine serum albumin (HyClone, SH30574.01) in TBS-Tween (1×) for 1 hour. […]

COc1cc2ncnc(Nc3cccc(Cl)c3)c2cc1OC [AG1478, tyrphostin AG1478]
expression of common markers of renal injury (CKD mice; CKD mice): does not reduce | Gene expression of renal fibrosis marker Colla1 (CKD mice; kidney, CKD mice treated vs CKD, p=0.6): no significant differences | Gene expression of renal fibrosis marker Tgfb1 (CKD mice; kidney, CKD mice treated vs CKD, p=0.7): no significant differences | Gene expression of ALPL in osteoblasts (Osteoblasts (hFOB 1.19); OS + 2.5 μM vs OS, p=0.9): no significant differences | Gene expression of Osteocalcin (BGLAP) in osteoblasts (Osteoblasts (hFOB 1.19); OS + 2.5 μM vs OS, p=0.9): no significant differences | Gene expression of RUNX2 in osteoblasts (Osteoblasts (hFOB 1.19); OS + 2.5 μM): downregulation | intracellular TNAP activity in osteoblasts (Osteoblasts (hFOB 1.19); OS + 2.5 μM): significantly increased | intracellular CAV1 protein in osteoblasts (Osteoblasts (hFOB 1.19); OS + 2.5 μM, compared to control group, p=0.01): significantly increased
